The numbers were not newly measured in patent US20050058670A1, “Oral itraconazole composition which is not affected by ingested food and process for preparing same” (priority 2003, published 2005), which cites them from elsewhere.

`CCC(C)n1ncn(-c2ccc(N3CCN(c4ccc(OCC5COC(Cn6cncn6)(c6ccc(Cl)cc6Cl)O5)cc4)CC3)cc2)c1=O` (stereo not shown) [Itraconazole]: the solubility in water result is “less than 1 μg/ml”.
